Patent US20200031820A1, “3-CARBOXYLIC ACID PYRROLES AS NRF2 REGULATORS” (GLSXOSMITHKLINE INTELLECTUAL PROPERTY DEVELOPMENT LIMITED, priority 2016, published 2020)

Legend:
[1] = target: T1, full length NRF2 protein and full length Keap1 protein (Homo sapiens, UniProt Q14145); assay: NRF2-Keap1 TR-FRET Low Protein Assay; type: binding; details: Keap1 FlagHis, biotin-NRF2
T1 construct: full length NRF2 protein and full length Keap1 protein; His
Source text: NRF2-Keap1 TR-FRET Low Protein Assay In the NRF2-Keap1 TR-FRET (time-resolved fluorescence resonance energy transfer) low protein assay, full length NRF2 protein and full length Keap1 protein (Keap1 exists a dimer) are used. The assay detects a compound's ability to displace the binding of Keap1 FlagHis with biotinylated Avi-NRF2 protein. Biotin-NRF2 binds to streptavidin-europium (a component of the detection mix) and Keap1 FlagHis is recognized by anti-Flag APC (allophycocyanin) antibody (also a component of the detection mix). If binding occurs between the two proteins, there will be an energy transfer from the Eu+3 (donor) at 615 nm to the APC (acceptor) at 665 nm. A potential NRF2 inhibitor will cause a reduction in the TR-FRET signal by interfering with the binding of Keap1 to NRF2.
Ten nanoliters of 100× compound dose response curves (serial 3-fold dilutions) in DMSO were stamped using an Echo liquid handling system (Labcyte) into 384-well, low volume, black assay plates (Greiner, #784076), with DMSO in columns 6 and 18. An additional 90 nl DMSO was added to each well, to bring the total volume to 100 nl per well. The top concentration of compound was located in columns 1 and 13, with the serial dilutions going across the row. All reagents were diluted in assay buffer (50 mM Tris, pH 8.0, 5 mM MgCl2, 100 mM NaCl, 0.005% BSA, 1 mM DTT, and 2 mM CHAPS. The BSA, DTT, and CHAPS were added to the assay buffer on the day of assay. Using a Multidrop Combi (Thermo Electron Corporation) equipped with a metal tip dispenser, 5 ul of 1.25 nM Keap1 FlagHis protein was added to all wells of the compound plate, with the exception of the wells in column 18. Wells in column 18 received 5 ul of assay buffer instead. Plates were centrifuged at 500 rpm for 1 minute, covered with a plate lid, and incubated at 37° C. for 2.25 hours. Plates were then removed from the incubator and allowed to cool to RT for 15 minutes. Five microliters of 2.5 nM biotin-NRF2 protein was then added to all wells of the plates and the plates were spun at 500 rpm for 1 minute, followed by incubating at 4° C. for 1.25 hours. The plates were then allowed to warm to RT for 15 minutes, followed by the addition of 10 ul of detection mix (1 nM Streptavidin Eu+ W1024 and 5 ug/ml mouse anti-DYKDDDDK IgG conjugated to SureLight APC antibody; both from Columbia Biosciences) to all wells. Plates were spun at 500 rpm for 1 minute, incubated for 1 hour at RT, and read on an Envision plate reader using a 320 nm excitation filter and 615 nm and 665 nm emission filters. Compound response (% inhibition) and potency (pIC50) were calculated based on the ratio of the two emissions (665 nm/615 nm) and then the transformed data is normalized against controls in the assay (control 1=1% DMSO in the presence of NRF2 and Keap1 protein and control 2=1% DMSO in the presence of only the NRF2 protein). Data analysis was handled using the software package Abase XE (Surrey, United Kingdom). The % inhibition values were calculated from the ratio (transformed) data by the equation:
100−(100*(compound response−average control 2)/(average control 1−average control2)).
For calculation of pIC50s, Abase XE used a four-parameter equation.
IC50s<10 nM (+++++), IC50s 10-100 nM (++++), IC50s 100 nM-1 uM (+++), IC50s 1-10 uM (++). & IC50s 10 uM-100 uM (+), IC50s >100 uM (−), or were not determined (ND).

[2] = tested on: NQO1 specific enzyme activity in BEAS-2B cells (marker for NRF2 activation); assay: Beas2B NQO1 MTT Assay; type: cell-based; details: Homo sapiens, NQO1 specific activity induction, 48 hours with compound
Source text: NAD(P)H:quinone oxidoreductase 1 (NQO1), also called DT diaphorase, is a homodimeric FAD-containing enzyme that catalyses obligatory NAD(P)H-dependent two-electron reductions of quinones and protects cells against the toxic and neoplastic effects of free radicals and reactive oxygen species arising from one-electron reductions. The transcription of NQO1 is finely regulated by NRF2, and thus NQO1 activity is a good marker for NRF2 activation. On day one, frozen BEAS-2B cells (ATCC) were thawed in a water bath, counted, and re-suspended at a concentration of 250,000 cells/mL. Fifty microliters of cells were plated in 384 well black clear-bottomed plates. Plates were incubated at 37° C., 5% CO2 overnight. On day two, plates were centrifuged and 50 nL of compound or controls were added to the cells. Plates were then incubated at 37° C., 5% CO2 for 48 hours. On day four, medium was aspirated from the plate and crude cell lysates were made by adding 13 uL of 1× Cell Signaling Technologies lysis buffer with 1 Complete, Mini, EDTA-free Protease Inhibitor Tablet (Roche) for each 10 mL of lysis buffer. After lysis plates were incubated for 20 minutes at room temperature. Two microliters of lysate were removed for use in Cell Titer Glo assay (Promega) and MTT cocktail was prepared (Prochaska et. al. 1998) for measurement of NQO1 activity. Fifty microliters of MTT cocktail was added to each well, plate was centrifuged, and analysed on an Envision plate reader (Perkin Elmer) using Absorbance 570 nm label for 30 minutes. Product formation was measured kinetically and the pEC50 of NQO1 specific activity induction was calculated by plotting the change in absorbance (Delta OD/min) versus the log of compound concentration followed by 3-parameter fitting.
EC50s <1 nM (+++++), EC50s 10 nM-1 nM (++++), EC50s 10-100 nM (+++), EC50s 100 nM-1 μM (++), EC50s 1-10 μM (+), EC50s >10 μM (−), or were not determined (ND).

T1 sequence (Q14145 whole entry): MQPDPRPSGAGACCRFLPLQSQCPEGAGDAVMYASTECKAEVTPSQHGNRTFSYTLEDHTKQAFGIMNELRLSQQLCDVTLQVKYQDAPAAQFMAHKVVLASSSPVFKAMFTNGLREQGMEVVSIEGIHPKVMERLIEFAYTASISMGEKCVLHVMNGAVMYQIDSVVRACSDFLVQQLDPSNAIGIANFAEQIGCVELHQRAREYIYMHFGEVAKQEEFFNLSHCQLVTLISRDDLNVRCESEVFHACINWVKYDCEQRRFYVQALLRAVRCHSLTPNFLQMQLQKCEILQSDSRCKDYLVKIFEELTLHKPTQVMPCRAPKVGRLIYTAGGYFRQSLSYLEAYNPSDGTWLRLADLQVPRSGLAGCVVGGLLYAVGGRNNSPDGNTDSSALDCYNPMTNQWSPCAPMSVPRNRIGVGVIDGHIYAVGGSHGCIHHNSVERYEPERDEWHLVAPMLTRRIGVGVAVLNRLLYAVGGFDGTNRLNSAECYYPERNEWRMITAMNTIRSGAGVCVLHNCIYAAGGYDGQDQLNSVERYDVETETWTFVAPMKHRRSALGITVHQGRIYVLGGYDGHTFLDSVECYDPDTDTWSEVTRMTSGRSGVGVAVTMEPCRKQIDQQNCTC

EC50 [1] | Structure (SMILES) | EC50 [2]
10 to 100 nM | C[C@H]1Cc2ccc(Br)cc2S(=O)(=O)N(Cc2cccc(-n3ccc(C(=O)O)c3[C@@H]3C[C@H]3c3cn(C)nn3)c2)C1 [Example 8, 1-(3-(((S)-8-bromo-4-methyl-1,1-dioxido-4,5-dihydrobenzo[f][1,2]thiazepin-2(3H)-yl)methyl)phenyl)-2-((1R,2R)-2-(1-methyl-1H-1,2,3-triazol-4-yl)cyclopropyl)-1H-pyrrole-3-carboxylic acid] | 1 to 10 nM
< 10 nM | CC[C@H]1Cc2ccc(Br)cc2S(=O)(=O)N(Cc2cccc(-n3ccc(C(=O)O)c3[C@@H]3C[C@H]3c3cn(C)nn3)c2)C1 [Example 9, 1-(3-(((S)-8-bromo-4-ethyl-1,1-dioxido-4,5-dihydrobenzo[f][1,2]thiazepin-2(3H)-yl)methyl)phenyl)-2-((1R,2R)-2-(1-methyl-1H-1,2,3-triazol-4-yl)cyclopropyl)-1H-pyrrole-3-carboxylic acid] | < 1 nM
100 to 1000 nM | C[C@H](Oc1cccc(-c2cccc(-n3ccc(C(=O)O)c3[C@H]3C[C@@H]3c3cn(C)nn3)c2)c1)C1CCCCC1 [Example 17, 1-(3′-((S)-1-cyclohexylethoxy)-[1,1′-biphenyl]-3-yl)-2-((1S,2S)-2-(1-methyl-1H-1,2,3-triazol-4-yl)cyclopropyl)-1H-pyrrole-3-carboxylic acid] | 10 to 100 nM
10 to 100 nM | CCC[C@@H]1CCCCN1C(=O)c1cccc(-c2cccc(-n3ccc(C(=O)O)c3[C@@H]3C[C@H]3c3cn(C)nn3)c2)c1Br [Example 22] | 10 to 100 nM
10 to 100 nM | CCC[C@@H]1CCCCN1C(=O)c1cc(F)cc(-c2cccc(-n3ccc(C(=O)O)c3[C@@H]3C[C@H]3c3cn(C)nn3)c2)c1 [Example 23] | 10 to 100 nM
1000 to 10000 nM | CCC[C@@H]1CCCCN1C(=O)c1cccc(-c2cccc(-n3ccc(C(=O)O)c3[C@@H]3C[C@H]3c3cn(C)nn3)c2)c1C(F)(F)F [Example 24] | 1000 to 10000 nM
